The values below come from US20240109865A1, “INDAZOLE COMPOUNDS AS KINASE INHIBITORS” (TYRA BIOSCIENCES, INC., priority 2020, published 2024).

A word on the Kd: it is the constant that tells how readily two partners part at equilibrium. Lower therefore signals higher affinity.

Like-named read-outs stand apart in the source and are kept apart here. Some results are limits rather than exact numbers.

The target in assay [1] is FGFR3-BAIAP2L1 Ba/F3 cells (Homo sapiens, UniProt P22607). Description: Ba/F3 cell viability assay (CellTiter-Glo 2.0), FGFR3-BAIAP2L1 Ba/F3. Type of assay: cell-based. The method in brief:
(§1)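 IL3-independent Ba/F3 lines driven by FGFR1-BCR or FGFR3-BAIAP2L1 fusions, in RPMI1640/10% FBS. 9-dose 10-fold series from 30 μM, triplicate, 48 h at 37 °C; viability by CellTiter-Glo 2.0 ATP luminescence relative to DMSO control, IC50 from 4-parameter sigmoidal fit.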
A general note: Cellular ATP, detected with luciferase, serves as a proxy for viable cell number.

The subject of assay [2] is UM-UC-14 cells (FGFR3(S249C)). Description: UM-UC-14 cancer cell line cell viability assay (CellTiter-Glo 2.0). It counts as cell-based. Particulars: UMUC14, 72 hours, Cell Titer Glo 2.0. An excerpt:
Experimental Purpose: To detect the change of intracellular ATP by Cell Titer-Glo® and to evaluate the inhibitory effect of the compounds on cancer cell lines by determining the in vitro IC50 value of the compounds.
Cell Titer-Glo® 2.0 Luminescent cell viability assay reagent was purchased from Promega (Madison, WI). RT112/84 and KG-1 cell lines were purchased from American Type Culture Collection (Manassas, VA). UM-UC-14 cell line was purchased from Sigma (St. Louis, MO). RT112/84, UM-UC-14, and KG-1 cells were cultured in RPMI1640 media supplemented with 10% fetal bovine serum. Cultures were maintained at 37° C. in a humidified atmosphere of 5% C02 and 95% air.
Cell Viability Assay Procedure: Cells were plated in 96-well clear bottom/white plates (Corning #3903) at 10,000 cells/well in 100 μl of media, incubated overnight. The next day, test compound DMSO stock solutions were made at 10 mM and 2 μM final concentration. Compounds were then added to cells in a 9-dose, 10-fold dilution series starting at 30 μM with an HP 300e Digital Dispenser (each dose was applied in triplicate). DMSO was backfilled to each well up to 301 nL total volume of test compound+DMSO, and a total of 301 nL DMSO was added to a control/no test compound well in triplicate. The cells in cell culture plates were incubated with the compounds at 37° C. and 5% C02 for 72 hours. Then 50 μl of Cell Titer Glo 2.0 reagent was added to each well of the cell culture plates. The contents were covered from light and mixed on an orbital shaker at room temperature for 10 min. Luminescence was recorded by a Synergy H1 Microplate Reader (Biotek, Winooski, VT). Cells were assessed as a percentage of DMSO only treated control cells. Curves were plotted and IC50 values were calculated using the GraphPad Prism 8 program based on a sigmoidal dose-response equation (4 parameter).

For assay [3], the target named is FGFR1-BCR Ba/F3 cells (Homo sapiens, UniProt P11362). Description: Ba/F3 cell viability assay (CellTiter-Glo 2.0), FGFR1-BCR Ba/F3. It counts as cell-based. The method in brief:
as §1

In assay [4] the target is FGFR3 (Homo sapiens (Human), UniProt P22607). Briefly: Kinase assay, binding constants (Kd), kinase-tagged T7 phage, qPCR. The method in brief:
(§2)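 Competition binding: kinase-tagged T7 phage lysates mixed with immobilized biotinylated ligand on streptavidin beads plus compound (11-point 3-fold dilution series, 0.9% DMSO final). Bound kinase eluted with free ligand and quantified by qPCR. Kd from Hill equation fit, slope fixed at −1.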
Background: Quantitative PCR measures a nucleic acid by following its amplification.

Assay [5] addresses FGFR1 (Homo sapiens (Human), UniProt P11362). The assay is described as above. The gist of the method:
as §2

In assay [6] the target is FGFR2 (Homo sapiens (Human), UniProt P21802). Described as above. The method in brief: as §2
In assay [7] the target is FGFR3 (V555M) (Homo sapiens (Human), UniProt P22607, V555M). Described as above. Particulars: V555M mutant. The gist of the method:
as §2

The target of assay [8] is FGFR4 (Homo sapiens (Human), UniProt P22455). Described as above. The method in brief: as §2
Assay [9] relates to RT112/84 cells (FGFR3-fusion). Description: RT112/84 cancer cell line cell viability assay (CellTiter-Glo 2.0). Type of assay: cell-based. Particulars: Homo sapiens, 72 hours, Cell Titer Glo 2.0. The method in brief: (§3)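 RT112/84, UM-UC-14 and KG-1 cells (10,000/well, RPMI1640 with 10% FBS) were treated with a 9-dose, 10-fold series starting at 30 μM, in triplicate, for 72 h at 37 °C. ATP was read by CellTiter-Glo 2.0 luminescence relative to DMSO controls, and IC50 was fitted with a 4-parameter sigmoidal model.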

The test system of assay [10] is KG-1 cells (FGFR1-fusion). Description: KG-1 cancer cell line cell viability assay (CellTiter-Glo 2.0). Particulars: Homo sapiens, 72 hours, Cell Titer Glo 2.0. Type of assay: cell-based. The gist of the method:
as §3

[11] abbreviates: FGFR3 > FGFR1 selectivity ratio in Ba/F3 FGFR fusion cell based assays.
Setting [12] is: read-out: Ba/F3 Cells FGFR3 (IC50 nM); FGFR3-BAIAP2L1 Ba/F3 cells, 48 hours, Cell Titer Glo 2.0.
Setting [13] is: read-out: Ba/F3 Cells FGFR1 (IC50 nM), 48 hours, Cell Titer Glo 2.0.

Sequence of FGFR3 (P22607 23-806): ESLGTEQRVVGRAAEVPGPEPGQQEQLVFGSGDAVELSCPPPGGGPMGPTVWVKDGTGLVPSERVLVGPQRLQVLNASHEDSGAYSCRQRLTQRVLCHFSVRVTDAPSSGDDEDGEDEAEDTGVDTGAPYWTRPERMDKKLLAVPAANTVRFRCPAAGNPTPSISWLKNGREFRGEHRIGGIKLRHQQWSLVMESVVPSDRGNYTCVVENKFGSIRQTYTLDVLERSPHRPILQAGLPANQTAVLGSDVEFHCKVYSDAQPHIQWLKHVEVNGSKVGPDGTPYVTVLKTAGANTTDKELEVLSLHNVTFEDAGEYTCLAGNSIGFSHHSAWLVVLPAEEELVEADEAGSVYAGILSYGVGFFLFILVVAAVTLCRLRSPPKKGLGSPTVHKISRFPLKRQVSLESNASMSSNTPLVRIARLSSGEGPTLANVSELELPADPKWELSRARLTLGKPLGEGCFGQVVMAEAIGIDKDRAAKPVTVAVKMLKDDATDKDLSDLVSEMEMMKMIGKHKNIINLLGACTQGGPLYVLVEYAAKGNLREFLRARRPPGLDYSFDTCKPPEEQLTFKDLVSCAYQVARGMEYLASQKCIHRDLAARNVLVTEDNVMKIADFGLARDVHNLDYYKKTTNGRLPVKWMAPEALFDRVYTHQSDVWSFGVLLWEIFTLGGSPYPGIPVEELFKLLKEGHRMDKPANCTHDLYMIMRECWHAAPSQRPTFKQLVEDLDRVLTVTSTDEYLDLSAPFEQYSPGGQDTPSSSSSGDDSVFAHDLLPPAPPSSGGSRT
Sequence of FGFR3-BAIAP2L1 Ba/F3 cells (P22607 23-806 limits assumed, change not shown): as the sequence (P22607 23-806) above
Sequence of FGFR1-BCR Ba/F3 cells (P11362 22-822 limits assumed, change not shown): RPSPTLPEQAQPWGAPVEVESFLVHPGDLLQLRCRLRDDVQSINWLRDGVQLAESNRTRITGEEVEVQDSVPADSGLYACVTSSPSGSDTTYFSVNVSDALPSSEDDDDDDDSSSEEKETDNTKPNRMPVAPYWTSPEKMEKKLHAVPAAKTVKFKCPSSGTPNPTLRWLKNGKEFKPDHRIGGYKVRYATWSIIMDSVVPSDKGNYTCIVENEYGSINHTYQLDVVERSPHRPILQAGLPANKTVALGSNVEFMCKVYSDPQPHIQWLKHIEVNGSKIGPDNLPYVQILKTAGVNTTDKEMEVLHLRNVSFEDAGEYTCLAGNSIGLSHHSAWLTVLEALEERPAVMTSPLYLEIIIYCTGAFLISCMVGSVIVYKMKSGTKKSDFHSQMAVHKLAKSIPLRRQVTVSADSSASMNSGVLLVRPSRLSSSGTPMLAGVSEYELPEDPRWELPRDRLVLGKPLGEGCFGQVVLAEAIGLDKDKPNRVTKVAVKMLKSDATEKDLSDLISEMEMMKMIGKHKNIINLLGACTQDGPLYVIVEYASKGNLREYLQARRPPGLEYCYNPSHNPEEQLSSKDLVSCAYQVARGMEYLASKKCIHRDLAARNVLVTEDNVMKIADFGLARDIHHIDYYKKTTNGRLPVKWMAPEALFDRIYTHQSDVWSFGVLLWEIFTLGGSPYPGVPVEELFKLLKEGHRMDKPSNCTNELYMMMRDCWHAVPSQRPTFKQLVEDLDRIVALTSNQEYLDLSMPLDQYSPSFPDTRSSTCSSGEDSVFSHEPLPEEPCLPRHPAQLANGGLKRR
Sequence of FGFR1 (P11362 22-822): as the sequence (P11362 22-822 limits assumed, change not shown) above
Sequence of FGFR3 (V555M) (P22607 23-806 V555M): as the sequence (P22607 23-806) above, with V533M counted along it
Sequence of FGFR2 (P21802 22-821): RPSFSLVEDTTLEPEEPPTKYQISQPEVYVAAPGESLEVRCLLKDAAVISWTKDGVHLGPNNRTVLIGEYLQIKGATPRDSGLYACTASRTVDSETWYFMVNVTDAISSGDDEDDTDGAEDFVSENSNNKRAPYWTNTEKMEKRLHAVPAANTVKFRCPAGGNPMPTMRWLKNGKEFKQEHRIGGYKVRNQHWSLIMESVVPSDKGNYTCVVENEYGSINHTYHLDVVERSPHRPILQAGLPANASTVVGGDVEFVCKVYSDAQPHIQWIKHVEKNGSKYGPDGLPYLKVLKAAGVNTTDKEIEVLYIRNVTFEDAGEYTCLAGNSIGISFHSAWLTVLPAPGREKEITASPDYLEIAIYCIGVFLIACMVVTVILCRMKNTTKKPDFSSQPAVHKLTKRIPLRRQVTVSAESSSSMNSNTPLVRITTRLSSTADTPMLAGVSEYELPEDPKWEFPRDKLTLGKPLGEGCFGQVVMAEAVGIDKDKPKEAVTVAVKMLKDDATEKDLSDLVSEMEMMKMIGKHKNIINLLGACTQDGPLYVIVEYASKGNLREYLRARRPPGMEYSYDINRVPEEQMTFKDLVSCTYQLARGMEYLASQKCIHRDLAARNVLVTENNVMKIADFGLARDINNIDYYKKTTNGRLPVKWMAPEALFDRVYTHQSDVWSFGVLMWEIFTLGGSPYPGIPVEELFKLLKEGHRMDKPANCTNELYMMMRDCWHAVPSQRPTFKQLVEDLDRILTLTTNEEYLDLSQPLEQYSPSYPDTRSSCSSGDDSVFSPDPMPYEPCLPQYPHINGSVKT
Sequence of FGFR4 (P22455 22-802): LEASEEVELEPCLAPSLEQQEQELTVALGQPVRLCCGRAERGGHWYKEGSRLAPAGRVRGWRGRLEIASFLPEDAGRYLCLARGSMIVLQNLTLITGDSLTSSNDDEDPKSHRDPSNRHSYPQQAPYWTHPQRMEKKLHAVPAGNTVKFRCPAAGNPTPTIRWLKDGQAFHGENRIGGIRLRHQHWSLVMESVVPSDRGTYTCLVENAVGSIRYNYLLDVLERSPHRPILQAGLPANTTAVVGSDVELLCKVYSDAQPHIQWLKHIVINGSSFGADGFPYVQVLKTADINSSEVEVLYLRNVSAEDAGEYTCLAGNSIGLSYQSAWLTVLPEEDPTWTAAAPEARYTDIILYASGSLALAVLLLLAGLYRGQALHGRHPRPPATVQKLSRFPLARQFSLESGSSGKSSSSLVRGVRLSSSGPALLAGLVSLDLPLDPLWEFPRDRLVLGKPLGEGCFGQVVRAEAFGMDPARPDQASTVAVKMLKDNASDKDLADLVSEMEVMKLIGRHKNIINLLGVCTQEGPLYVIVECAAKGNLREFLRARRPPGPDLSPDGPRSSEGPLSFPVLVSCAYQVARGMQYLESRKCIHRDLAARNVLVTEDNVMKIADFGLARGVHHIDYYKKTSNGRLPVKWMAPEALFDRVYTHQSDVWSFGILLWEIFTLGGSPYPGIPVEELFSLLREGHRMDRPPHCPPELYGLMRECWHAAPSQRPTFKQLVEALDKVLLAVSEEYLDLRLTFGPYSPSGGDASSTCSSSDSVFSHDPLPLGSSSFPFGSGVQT

As to `CCC(=O)N1CCN(c2ccc(-c3n[nH]c4ccc(O[C@H](C)c5c(Cl)cncc5Cl)cc34)cn2)CC1` [Example 9, 1-[4-[5-[5-[(1R)-1-(3,5-dichloro-4-pyridyl)ethoxy]-1H-indazol-3-yl]-2-pyridyl]piperazin-1-yl]propan-1-one], the “Ba/F3 FGFR1/FGFR3 Selectivity” value in [1] (setting [11]) is reported as 19. Further, the IC50 in assay [1] (setting [12]) lay within 1 to 20 nM; in assay [2], 1 to 20 nM; in [3] (setting [13]), 100 to 300 nM; in assay [9] it was 1 to 20 nM; in [10], 20 to 100 nM. In addition, the Kd in assay [4], in assay [5], in [6], in assay [7] and in [8] was 1 to 20 nM in each case.
As for `C[C@@H](Oc1ccc2[nH]nc(-c3cnc(N4CCNCC4)c(F)c3)c2c1)c1c(Cl)cncc1Cl` [Example 10, 5-[(1R)-1-(3,5-Dichloro-4-pyridyl)ethoxy]-3-(5-fluoro-6-piperazin-1-yl-3-pyridyl)-1H-indazole], in assay [1] (setting [11]), the “Ba/F3 FGFR1/FGFR3 Selectivity” value turned out to be 9. In addition, the IC50 in assay [1] (setting [12]) fell in the range of 1 to 20 nM; in assay [2], 1 to 20 nM; in assay [3] (setting [13]) it was 20 to 100 nM; in assay [9] it was 1 to 20 nM; in assay [10], 20 to 100 nM. Also, the Kd in assay [4], in [5], in assay [6], in assay [7] and in assay [8] was 1 to 20 nM throughout.
Turning to `C[C@@H](Oc1ccc2[nH]nc(-c3cnc(N4CCNCC4)nc3)c2c1)c1c(Cl)cncc1Cl` [Example 11, 5-[(1R)-1-(3,5-dichloro-4-pyridyl)ethoxy]-3-(2-piperazin-1-ylpyrimidin-5-yl)-1H-indazole], the “Ba/F3 FGFR1/FGFR3 Selectivity” value in assay [1] (setting [11]) came to 9. The IC50 in assay [1] (setting [12]) was 1 to 20 nM; in [2], 20 to 100 nM; in assay [3] (setting [13]) it was 100 to 300 nM; in [9], 1 to 20 nM; in assay [10], 20 to 100 nM. The Kd in assay [4], in assay [5], in assay [6], in assay [7] and in assay [8] was 1 to 20 nM throughout.
As to `C[C@@H](Oc1ccc2[nH]nc(-c3ccc(N4CCN(C(N)=O)CC4)nc3)c2c1)c1c(Cl)cncc1Cl` [Example 12, 4-[5-[5-[(1R)-1-(3,5-dichloro-4-pyridyl)ethoxy]-1H-indazol-3-yl]-2-pyridyl]piperazine-1-carboxamide], the “Ba/F3 FGFR1/FGFR3 Selectivity” value in assay [1] (setting [11]) was 19. Also, the IC50 is 1 to 20 nM in assay [1] (setting [12]); 1 to 20 nM in [2]; 100 to 300 nM in assay [3] (setting [13]); 1 to 20 nM in assay [9]; 20 to 100 nM in assay [10]. In addition, the Kd in assay [4], in [5], in assay [6], in assay [7] and in assay [8] was 1 to 20 nM throughout.
As for `C[C@@H](Oc1ccc2[nH]nc(-c3cnc(N4CCN(C(=O)N5CCN(C)CC5)CC4)c(F)c3)c2c1)c1c(Cl)cncc1Cl` [Example 13, [4-[5-[5-[(1R)-1-(3,5-Dichloro-4-pyridyl)ethoxy]-1H-indazol-3-yl]-3-fluoro-2-pyridyl]piperazin-1-yl]-(4-methylpiperazin-1-yl)methanone], the “Ba/F3 FGFR1/FGFR3 Selectivity” value in [1] (setting [11]) is given as 11. Further, the IC50 in [1] (setting [12]) lay within 20 to 100 nM; in assay [2], 20 to 100 nM; in [3] (setting [13]), 100 to 300 nM; in [9], 1 to 20 nM; in [10], 20 to 100 nM. In addition, the Kd in assay [4], in assay [5], in assay [6], in [7] and in assay [8] was 1 to 20 nM throughout.
For `C[C@@H](Oc1ccc2[nH]nc(-c3cnc(N4CCN(S(C)(=O)=O)CC4)nc3)c2c1)c1c(Cl)cncc1Cl` [Example 14, 5-[(1R)-1-(3,5-Dichloro-4-pyridyl)ethoxy]-3-[2-(4-methylsulfonylpiperazin-1-yl)pyrimidin-5-yl]-1H-indazole], in [1] (setting [11]), the “Ba/F3 FGFR1/FGFR3 Selectivity” value amounted to 18. For the same compound, the IC50 in assay [1] (setting [12]) was 1 to 20 nM; in [2] it was 20 to 100 nM; in assay [3] (setting [13]) it was more than 300 nM; in assay [9] it was 1 to 20 nM; in assay [10] it was 100 to 300 nM. The equilibrium dissociation constant (Kd) in [4] lay in the range of 1 to 20 nM; in assay [5], 1 to 20 nM; in assay [6], 20 to 100 nM; in assay [7] it was 1 to 20 nM; in assay [8] it was 1 to 20 nM.
Consider `C[C@@H](Oc1ccc2[nH]nc(-c3cnc(N4CCN(C(=O)N5CCN(C)CC5)CC4)nc3)c2c1)c1c(Cl)cncc1Cl` [Example 15, [4-[5-[5-[(1R)-1-(3,5-dichloro-4-pyridyl)ethoxy]-1H-indazol-3-yl]pyrimidin-2-yl]piperazin-1-yl]-(4-methylpiperazin-1-yl)methanone], for which the “Ba/F3 FGFR1/FGFR3 Selectivity” value in [1] (setting [11]) was 10. Further, the IC50 in assay [1] (setting [12]) is 20 to 100 nM; in [2], 1 to 20 nM; in [3] (setting [13]) it was more than 300 nM; in assay [9] it was 1 to 20 nM; in assay [10], 20 to 100 nM. Further, the Kd in assay [4], in [5], in assay [6], in assay [7] and in assay [8] was 1 to 20 nM each time.
Consider `C[C@@H](Oc1ccc2[nH]nc(-c3ccc(N4CC5CC(C4)N5)nc3)c2c1)c1c(Cl)cncc1Cl` [Example 16, 3-[6-(3,6-Diazabicyclo[3.1.1]heptan-3-yl)-3-pyridyl]-5-[(1R)-1-(3,5-dichloro-4-pyridyl)ethoxy]-1H-indazole], for which the IC50 in assay [1] (FGFR3-BAIAP2L1 Ba/F3 cells, 48 hours, Cell Titer Glo 2.0; read-out: Ba/F3 Cells FGFR3 (IC50 nM)) was 20 to 100 nM; in assay [2] it was 1 to 20 nM; in [3] (48 hours, Cell Titer Glo 2.0, read-out: Ba/F3 Cells FGFR1 (IC50 nM)), more than 300 nM; in [9], 1 to 20 nM; in [10], 20 to 100 nM. Besides, in assay [1] (setting [11]), the “Ba/F3 FGFR1/FGFR3 Selectivity” value was 14. Besides, the Kd in assay [4], in [5], in assay [6], in assay [7] and in [8] was 1 to 20 nM in each case.
For `C[C@@H](Oc1ccc2[nH]nc(-c3cnc(N4CCN(C(=O)N(C)C)CC4)nc3)c2c1)c1c(Cl)cncc1Cl` [Example 19, 4-[5-[5-[(1R)-1-(3,5-Dichloro-4-pyridyl)ethoxy]-1H-indazol-3-yl]pyrimidin-2-yl]-N,N-dimethyl-piperazine-1-carboxamide], the “Ba/F3 FGFR1/FGFR3 Selectivity” value in assay [1] (setting [11]) came to 15. For the same compound, the IC50 in assay [1] (setting [12]) is 1 to 20 nM; in assay [2] it was 1 to 20 nM; in assay [3] (setting [13]) it was 100 to 300 nM; in [9], 1 to 20 nM; in assay [10] it was 100 to 300 nM. The Kd in assay [4] was in the range of 1 to 20 nM; in [5], 1 to 20 nM; in [6] it was 100 to 300 nM; in assay [7], 1 to 20 nM; in assay [8], 1 to 20 nM.
